Reference: ChEMBL document CHEMBL3425451, “Novel synthetic bisbenzimidazole that targets angiogenesis in Ehrlich ascites carcinoma bearing mice” (Bioorg Med Chem Lett, 2015)
Calls of active or inactive are those of the source. The rule behind the calls is not given here.

Legend:
[1] = test system: HeLa; assay: Cytotoxicity against human HeLa cells by MTT assay
[2] = Cytotoxicity against human HCT116 cells by MTT assay; type: functional, cell-based; conditions: HCT-116
[3] = test system: A549; assay: Cytotoxicity against human A549 cells by MTT assay; type: functional, cell-based
[4] = test system: Vero; assay: Cytotoxicity against African green monkey Vero cells by MTT assay; type: cell-based; conditions: Chlorocebus sabaeus
[5] = test system: HeLa; assay: Induction of apoptosis in human HeLa cells assessed as accumulation at subG1 phase at 25 uM by propidium iodide staining based flow cytometry; type: functional, cell-based; conditions: TDE = time-dependent effect
[6] = test system: EAT; assay: Antitumor activity against mouse EAT implanted in Swiss albino mouse assessed as reduction in body weight at 10 mg/kg injected into peritoneum and measured on day 11; type: functional, organism-based; design: dose 10 mg/kg
[7] = test system: EAT; assay: Antitumor activity against mouse EAT implanted in Swiss albino mouse assessed as reduction in ascites fluid volume at 10 mg/kg injected into peritoneum and measured on day 12; type: functional, organism-based; design: dose 10 mg/kg
[8] = test system: EAT; assay: Antitumor activity against mouse EAT implanted in Swiss albino mouse assessed as reduction in tumor cell viability at 10 mg/kg injected into peritoneum and measured on day 12 by trypan blue dye exclusion assay; type: functional, organism-based; design: dose 10 mg/kg
[9] = test system: EAT; assay: Inhibition of peritoneal angiogenesis of mouse EAT implanted in Swiss albino mouse at 10 mg/kg injected into peritoneum; type: functional, organism-based; design: dose 10 mg/kg
[10] = test system: EAT; assay: (§1) Inhibition of peritoneal angiogenesis of mouse EAT implanted in Swiss albino mouse assessed as reduction in micro vessel density at 10 mg/kg injected into peritoneum by hematoxylin and eosin staining method; type: functional, organism-based; design: dose 10 mg/kg
[11] = as §1, with “density by measuring number of micro vessels per high power field” for “density”, “method (reference value: 54 +/- 6 vessels/high power field)” for “method”; type: functional
[12] = Inhibition of VEGF production in mouse EAT implanted in Swiss albino mouse peritoneal cavity at 10 mg/kg injected into peritoneum by ELISA method (reference value: 2412 +/- 10 ng); type: functional
[13] = test system: EAT; assay: […] of apoptosis in mouse EAT implanted in Swiss albino mouse assessed as induction of DNA fragmentation at 10 mg/kg injected into peritoneum by ethidium bromide staining based electrophoresis method; type: functional, organism-based; design: dose 10 mg/kg
[14] = test system: EAT; assay: […] of apoptosis in mouse EAT implanted in Swiss albino mouse assessed as induction of cell shrinkage at 10 mg/kg injected into peritoneum by Giemsa staining based microscopy; type: functional, organism-based; design: dose 10 mg/kg
[15] = test system: EAT; assay: […] of apoptosis in mouse EAT implanted in Swiss albino mouse assessed as induction of small blebs formation at 10 mg/kg injected into peritoneum by Giemsa staining based microscopy; type: functional, organism-based; design: dose 10 mg/kg
[16] = test system: EAT; assay: […] of apoptosis in mouse EAT implanted in Swiss albino mouse assessed as induction of apoptotic bodies formation at 10 mg/kg injected into peritoneum by Giemsa staining based microscopy; type: functional, organism-based; design: dose 10 mg/kg

| SMILES | IC50 [1] [µM] | IC50 [2] [µM] | IC50 [3] [µM] | IC50 [4] [µM] | other results |
| --- | --- | --- | --- | --- | --- |
| CCCc1nc2c(C)cc(-c3nc4ccccc4n3C)cc2n1S(=O)(=O)c1ccc(C)cc1 | 20.1 | 41.6 | > 50 | > 50 |  |
| CCCc1nc2c(C)cc(-c3nc4ccccc4n3C)cc2n1S(=O)(=O)c1ccccc1Br | > 50 |  |  |  |  |
| CCCc1nc2c(C)cc(-c3nc4ccccc4n3C)cc2n1S(=O)(=O)c1ccccc1 | 23.8 | > 50 | > 50 | > 50 |  |
| CCCc1nc2c(C)cc(-c3nc4ccccc4n3C)cc2n1S(=O)(=O)c1cc(Cl)ccc1Cl | > 50 |  |  |  |  |
| CCCc1nc2c(C)cc(-c3nc4ccccc4n3C)cc2n1S(=O)(=O)c1c(C)cc(C)cc1C | 21 | 29.9 | > 50 | > 50 |  |
| CCCc1nc2c(C)cc(-c3nc4ccccc4n3C)cc2n1S(=O)(=O)c1ccc(F)cc1 | 16.7 | 19.9 | 32.2 | > 50 | Activity [5]: tde; inhibition [6]: Active; inhibition [7]: Active; inhibition [8]: Active; inhibition [9]: Active; inhibition [10]: Active; Activity [11]: 8; Activity [12]: 225 ng; Activity [13]: Active; Activity [14]: Active; Activity [15]: Active; Activity [16]: Active |
| CCCc1nc2c(C)cc(-c3nc4ccccc4n3C)cc2n1S(=O)(=O)c1ccc(Br)cc1 | 24.7 | 49.3 | 35.1 | > 50 |  |
| CCCc1nc2c(C)cc(-c3nc4ccccc4n3C)cc2n1S(=O)(=O)c1ccc(OC)cc1 | 18.3 | 19.1 | 34.7 | > 50 |  |
| CCCc1nc2c(C)cc(-c3nc4ccccc4n3C)cc2n1S(=O)(=O)c1ccc(Cl)cc1 | 21.4 | 36.8 | > 50 | > 50 |  |
| CCCc1nc2c(C)cc(-c3nc4ccccc4n3C)cc2n1S(=O)(=O)c1ccccc1Cl | > 50 |  |  |  |  |
